Measurements as given in patent publication US20260138990A1, “TRICYCLIC FUSED IMIDAZOLE COMPOUNDS AS CD38 MODULATORS AND USES THEREOF” (AEOVIAN PHARMACEUTICALS, INC., priority 2023, published 2026).
pIC50: −log10 of the molar value.

Key:
[1] = target: T1, human CD38 (Homo sapiens, UniProt P28907); test: NAD+ cyclase activity assay with human recombinant CD38 protein (ε-NAD fluorescence); format: biochemical; conditions: 1.9 nM human CD38, substrate ε-NAD, 30 min preincubation, fluorescence 300/410 nm
T1 construct: purchased Bio-Techne GmbH AVI2404
T1 sequence (P28907 1-300): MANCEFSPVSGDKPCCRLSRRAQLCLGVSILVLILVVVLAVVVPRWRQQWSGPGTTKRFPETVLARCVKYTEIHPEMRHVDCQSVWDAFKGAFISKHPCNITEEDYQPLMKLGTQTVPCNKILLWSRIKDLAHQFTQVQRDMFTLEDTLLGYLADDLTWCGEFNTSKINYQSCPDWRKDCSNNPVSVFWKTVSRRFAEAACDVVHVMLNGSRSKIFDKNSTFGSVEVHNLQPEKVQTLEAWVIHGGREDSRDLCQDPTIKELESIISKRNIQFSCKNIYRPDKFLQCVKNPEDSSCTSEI
Procedure, shortened: (§1)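 Recombinant CD38 (0.6 nM mouse or 1.9 nM human) in 40 mM HEPES/NaOH pH 7.5, 250 mM sucrose, 0.01% Tween was preincubated with compound for 30 min at room temperature, then […] ε-NAD was added. Fluorescence (ex 300/em 410 nm) was read continuously. Slopes over the linear phase were normalised to enzyme and no-enzyme controls and fitted from 12-point, threefold dose-response curves.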

[2] = target: T2, mouse CD38 (Mus musculus, UniProt P56528); test: NAD+ cyclase activity assay with mouse recombinant CD38 protein (ε-NAD fluorescence); format: biochemical; conditions: 0.6 nM mouse CD38, substrate ε-NAD, 30 min preincubation, fluorescence 300/410 nm
T2 construct: purchased Bio-Techne GmbH 4947-AC
T2 sequence (P56528 1-304): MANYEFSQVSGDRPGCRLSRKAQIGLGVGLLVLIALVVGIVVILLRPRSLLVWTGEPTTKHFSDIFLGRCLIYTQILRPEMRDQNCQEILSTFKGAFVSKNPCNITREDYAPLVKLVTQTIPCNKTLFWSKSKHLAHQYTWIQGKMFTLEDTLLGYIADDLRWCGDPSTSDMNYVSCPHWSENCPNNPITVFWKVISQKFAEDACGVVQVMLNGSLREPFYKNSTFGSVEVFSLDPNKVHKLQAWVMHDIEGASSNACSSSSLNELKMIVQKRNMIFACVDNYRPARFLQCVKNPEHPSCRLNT
Procedure, shortened: as §1

SMILES | pIC50 [1] | pIC50 [2]
COCCO[C@H]1CC[C@H](NC(=O)c2cc(F)c3c(c2F)-c2cncn2CCO3)CC1 [Compound 91A, 8,11-Difluoro-N-((1r,4r)-4-(2-methoxyethoxy)cyclohexyl)-5,6-dihydrobenzo[f]imidazo[1,5-d][1,4]oxazepine-10-carboxamide] | 7.00 to 7.52 | 8.00 to 9.00
O=C(Nc1cnc2scnc2c1)c1ccc2c(c1)-c1cncn1CCO2 [Compound 40A, N-(Thiazolo[5,4-b]pyridin-6-yl)-5,6-dihydrobenzo[f]imidazo[1,5-d][1,4]oxazepine-10-carboxamide] | > 7.52 | 8.00 to 9.00
O=C(N[C@@H]1CCC(F)(F)C1)c1ccc2c(c1)-c1cncn1CCO2 [Compound 92A, (R)—N-(3,3-Difluorocyclopentyl)-5,6-dihydrobenzo[f]imidazo[1,5-d][1,4]oxazepine-10-carboxamide] | > 7.52 | 8.00 to 9.00
C[C@@H]1CCC[C@@H](C)C1NC(=O)c1cc(F)c2c(c1)-c1cncn1CCO2 (relative stereo) [Compound 177A, N-(trans-2-cis-6-Dimethylcyclohexyl)-8-fluoro-5,6-dihydrobenzo[f]imidazo[1,5-d][1,4]oxazepine-10-carboxamide] | > 7.52 | 8.00 to 9.00
COCCO[C@H]1CC[C@H](NC(=O)c2cc3c(c(C(F)(F)F)c2)OCCn2cncc2-3)CC1 [Compound 55A, N-((1r,4r)-4-(2-Methoxyethoxy)cyclohexyl)-8-(trifluoromethyl)-5,6-dihydrobenzo[f]imidazo[1,5-d][1,4]oxazepine-10-carboxamide] | 7.00 to 7.52 | > 9.00
COCCC(=O)N[C@H]1CC[C@H](NC(=O)c2ccc3c(c2)-c2cncn2CCO3)CC1 [Compound 67A, N-((1r,4r)-4-(3-Methoxypropanamido)cyclohexyl)-5,6-dihydrobenzo[f]imidazo[1,5-d][1,4]oxazepine-10-carboxamide] | 6.00 to 7.00 | 8.00 to 9.00
CC1(C)CC(NC(=O)c2cc(F)c3c(c2)-c2cncn2CCO3)C1 [Compound 143A, N-(3,3-Dimethylcyclobutyl)-8-fluoro-5,6-dihydrobenzo[f]imidazo[1,5-d][1,4]oxazepine-10-carboxamide] | > 7.52 | > 9.00
COCCS(=O)(=O)N[C@H]1CC[C@H](NC(=O)c2ccc3c(c2)-c2cncn2CCO3)CC1 [Compound 29A, N-((1r,4r)-4-((2-Methoxyethyl)sulfonamido)cyclohexyl)-5,6-dihydrobenzo[f]imidazo[1,5-d][1,4]oxazepine-10-carboxamide] | > 7.52 | 8.00 to 9.00
CN1CCOc2ncc(NC(=O)c3ccc4c(c3)-c3cncn3CCO4)cc21 [Compound 101A, N-(1-Methyl-2,3-dihydro-1H-pyrido[2,3-b][1,4]oxazin-7-yl)-5,6-dihydrobenzo[f]imidazo[1,5-d][1,4]oxazepine-10-carboxamide] | > 7.52 | > 9.00
O=C(N[C@@H]1CCC(F)(F)C1)c1cc(F)c2c(c1)-c1cncn1CCO2 [Compound 108A, (R)—N-(3,3-Difluorocyclopentyl)-8-fluoro-5,6-dihydrobenzo[f]imidazo[1,5-d][1,4]oxazepine-10-carboxamide] | > 7.52 | > 9.00
COCCNC(=O)[C@H]1CC[C@H](NC(=O)c2ccc3c(c2)-c2cncn2CCO3)CC1 [Compound 59A, N-((1r,4r)-4-((2-Methoxyethyl)carbamoyl)cyclohexyl)-5,6-dihydrobenzo[f]imidazo[1,5-d][1,4]oxazepine-10-carboxamide] | > 7.52 | 8.00 to 9.00
O=C(N[C@H]1CC[C@@H](O[C@H]2C[C@H](F)C2)CC1)c1ccc2c(c1)-c1cncn1CCO2 [Compound 150A, N-((1s,4s)-4-((1r,3r)-3-Fluorocyclobutoxy)cyclohexyl)-5,6-dihydrobenzo[f]imidazo[1,5-d][1,4]oxazepine-10-carboxamide] | 6.00 to 7.00 | < 7.00
CS(=O)(=O)N1CCC(NC(=O)c2ccc3c(c2)-c2cncn2CCO3)CC1 [Compound 4A, N-(1-(Methylsulfonyl)piperidin-4-yl)-5,6-dihydrobenzo[f]imidazo[1,5-d][1,4]oxazepine-10-carboxamide] | > 7.52 | 8.00 to 9.00
O=C(N[C@H]1CC[C@@H](O[C@H]2C[C@@H](F)C2)CC1)c1ccc2c(c1)-c1cncn1CCO2 [Compound 149A, N-((1s,4s)-4-((1s,3s)-3-Fluorocyclobutoxy)cyclohexyl)-5,6-dihydrobenzo[f]imidazo[1,5-d][1,4]oxazepine-10-carboxamide] | 6.00 to 7.00 | 7.00 to 8.00
CC(C)(O)[C@H]1CC[C@H](NC(=O)c2cc(F)c3c(c2)-c2cncn2CCO3)CC1 [Compound 114A, 8-Fluoro-N-((1r,4r)-4-(2-hydroxypropan-2-yl)cyclohexyl)-5,6-dihydrobenzo[f]imidazo[1,5-d][1,4]oxazepine-10-carboxamide] | > 7.52 | > 9.00

Now from value to compound:

pIC50 [1] | pIC50 [2] | SMILES
> 7.52 | 8.00 to 9.00 | O=C(N[C@H]1CC[C@H](CCO)CC1)c1ccc2c(c1)-c1cncn1CCO2 [Compound 56A, N-((1r,4r)-4-(2-Hydroxyethyl)cyclohexyl)-5,6-dihydrobenzo[f]imidazo[1,5-d][1,4]oxazepine-10-carboxamide]
> 7.52 | 8.00 to 9.00 | O=C(N[C@H]1CC[C@H](C(F)(F)F)CC1)c1ccc2c(c1)-c1cncn1CCO2 [Compound 52A, N-((1r,4r)-4-(Trifluoromethyl)cyclohexyl)-5,6-dihydrobenzo[f]imidazo[1,5-d][1,4]oxazepine-10-carboxamide]
> 7.52 | 8.00 to 9.00 | O=C(N[C@H]1CC[C@H](N2CC(C(F)F)C2)CC1)c1ccc2c(c1)-c1cncn1CCO2 [Compound 113A, N-((1r,4r)-4-(3-(Difluoromethyl)azetidin-1-yl)cyclohexyl)-5,6-dihydrobenzo[f]imidazo[1,5-d][1,4]oxazepine-10-carboxamide]
> 7.52 | 8.00 to 9.00 | O=C(N[C@H]1CC[C@H](NCC(F)F)CC1)c1ccc2c(c1)-c1cncn1CCO2 [Compound 63A, N-((1r,4r)-4-((2,2-Difluoroethyl)amino)cyclohexyl)-5,6-dihydrobenzo[f]imidazo[1,5-d][1,4]oxazepine-10-carboxamide]
> 7.52 | 8.00 to 9.00 | O=C(N[C@H]1CC[C@H](N2CCC(F)(F)C2)CC1)c1ccc2c(c1)-c1cncn1CCO2 [Compound 71A, N-((1r,4r)-4-(3,3-Difluoropyrrolidin-1-yl)cyclohexyl)-5,6-dihydrobenzo[f]imidazo[1,5-d][1,4]oxazepine-10-carboxamide]
7.00 to 7.52 | 8.00 to 9.00 | O=C(N[C@H]1CC[C@H](N2CC(C(F)(F)F)C2)CC1)c1ccc2c(c1)-c1cncn1CCO2 [Compound 107A, N-((1r,4r)-4-(3-(Trifluoromethyl)azetidin-1-yl)cyclohexyl)-5,6-dihydrobenzo[f]imidazo[1,5-d][1,4]oxazepine-10-carboxamide]
6.00 to 7.00 | 7.00 to 8.00 | O=C(N[C@H]1CC[C@@H](OCC(F)(F)F)CC1)c1ccc2c(c1)-c1cncn1CCO2 [Compound 123A, N-((1s,4s)-4-(2,2,2-Trifluoroethoxy)cyclohexyl)-5,6-dihydrobenzo[f]imidazo[1,5-d][1,4]oxazepine-10-carboxamide]
